What was measured:
SETVI [1] = assay: Herbicidal post-emergence action, section E (Table E8); type: in vivo, Setaria viridis; details: application rate 320 g/ha; assessed visually after ca. 3 weeks
Description: (§1) 2 to 3 weeks after sowing, the test plants were sprayed in the single-leaf stage.

ECHCG [2] = assay: Herbicidal pre-emergence action, section C (Table C6); type: in vivo, Echinochloa crus-galli; details: application rate 80 g/ha; visual grading after ca. 3 weeks
VIOTR [3] = assay: Herbicidal post-emergence action, section E (Table E10); type: in vivo, Viola tricolor; details: application rate 320 g/ha; assessed visually after ca. 3 weeks
Description: as §1

ALOMY [4] = assay: Herbicidal post-emergence action (Table B2); type: in vivo, Alopecurus myosuroides; details: application rate 320 g/ha; rated visually after about 3 weeks
Procedure, shortened: (§2)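 Percent herbicidal activity scored visually versus untreated controls, with 100% meaning dead plants. Scoring took place ~3 weeks after post-emergence treatment of one-leaf-stage weeds grown in sandy loam pots in a greenhouse.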

DIGSA [5] = assay: Herbicidal pre-emergence action (Table A12); type: in vivo, Digitaria sanguinalis; details: application rate 320 g/ha; visual grading after ca. 3 weeks
Procedure, shortened: (§3)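 Weed seeds are sown into sandy loam in pots and covered with soil, with two species per pot, one monocot and one dicot.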

ECHCG [6] = assay: Herbicidal pre-emergence action (Table A2); type: in vivo, Echinochloa crus-galli; details: application rate 320 g/ha; visual grading after ca. 3 weeks
Procedure, shortened: as §3

MATIN [7] = assay: Herbicidal pre-emergence action (Table A4); type: in vivo, Matricaria inodora; details: application rate 320 g/ha; visual grading after ca. 3 weeks
Procedure, shortened: as §3

GLXMA [8] = assay: Pre-emergence effects on crop plants (Table D4); type: in vivo, Glycine max; details: crop plant; application rate 80 g/ha; visual grading after ca. 3 weeks
VERPE [9] = assay: Herbicidal pre-emergence action, section C (Table C11); type: in vivo, Veronica persica; details: application rate 320 g/ha; visual grading after ca. 3 weeks
ALOMY [10] = assay: Herbicidal post-emergence action, section E (Table E2); type: in vivo, Alopecurus myosuroides; details: assessed visually after ca. 3 weeks
Description: as §1

DIGSA [11] = assay: Herbicidal post-emergence action, section E (Table E4); type: in vivo, Digitaria sanguinalis; details: application rate 320 g/ha; assessed visually after ca. 3 weeks
Description: as §1

ABUTH [12] = assay: Herbicidal post-emergence action, section E (Table E1); type: in vivo, Abutilon theophrasti; details: application rate 320 g/ha; assessed visually after ca. 3 weeks
Description: as §1

ABUTH [13] = assay: Herbicidal post-emergence action (Table B1); type: in vivo, Abutilon theophrasti; details: application rate 320 g/ha; treated at one-leaf stage; rated visually after about 3 weeks vs untreated controls (100% = plants have died, 0% = like control plants)
Procedure, shortened: as §2

SETVI [14] = assay: Herbicidal pre-emergence action (Table A5); type: in vivo, Setaria viridis; details: application rate 320 g/ha; visual grading after ca. 3 weeks
Procedure, shortened: as §3

POAAN [15] = assay: Herbicidal pre-emergence action (Table A7); type: in vivo, Poa annua; details: application rate 320 g/ha; visual grading after ca. 3 weeks
Procedure, shortened: as §3

ECHCG [16] = assay: Herbicidal post-emergence action (Table B3); type: in vivo, Echinochloa crus-galli; details: application rate 320 g/ha; rated visually after about 3 weeks
Procedure, shortened: as §2

ALOMY [17] = assay: Herbicidal pre-emergence action, section C (Table C2); type: in vivo, Alopecurus myosuroides; details: application rate 80 g/ha; visual grading after ca. 3 weeks
POAAN [18] = assay: Herbicidal post-emergence action (Table B7); type: in vivo, Poa annua; details: application rate 320 g/ha
Procedure, shortened: as §2

ABUTH [19] = assay: Herbicidal pre-emergence action (Table A1); type: in vivo, Abutilon theophrasti; details: application rate 320 g/ha; visual grading after ca. 3 weeks vs untreated controls (100% = plants have died off, 0% = as control plants)
Procedure, shortened: as §3

MATIN [20] = assay: Herbicidal post-emergence action (Table B6); type: in vivo, Matricaria inodora; details: application rate 320 g/ha; rated visually after about 3 weeks
Procedure, shortened: as §2

ZEAMX = assay: Post-emergence effects on crop plants (Table F1); type: in vivo, Zea mays; details: crop plant ZEAMX
Description: as §1

SETVI [21] = assay: Herbicidal post-emergence action (Table B8); type: in vivo, Setaria viridis; details: application rate 320 g/ha
Procedure, shortened: as §2

AMARE [22] = assay: Herbicidal pre-emergence action (Table A8); type: in vivo, Amaranthus retroflexus; details: application rate 1280 g/ha; visual grading after ca. 3 weeks vs untreated controls (100% = plants have died off, 0% = as control plants)
Procedure, shortened: as §3

ALOMY [23] = assay: Herbicidal pre-emergence action (Table A9); type: in vivo, Alopecurus myosuroides; details: application rate 320 g/ha; visual grading after ca. 3 weeks
Procedure, shortened: as §3

MATIN [24] = assay: Herbicidal pre-emergence action, section C (Table C8); type: in vivo, Matricaria inodora; details: application rate 320 g/ha; visual grading after ca. 3 weeks
VERPE [25] = assay: Herbicidal post-emergence action, section E (Table E9); type: in vivo, Veronica persica; details: application rate 320 g/ha; assessed visually after ca. 3 weeks
Description: as §1

VERPE [26] = assay: Herbicidal pre-emergence action (Table A11); type: in vivo, Veronica persica; details: application rate 320 g/ha; visual grading after ca. 3 weeks
Procedure, shortened: as §3

LOLRI [27] = assay: Herbicidal pre-emergence action (Table A3); type: in vivo, Lolium rigidum; details: application rate 320 g/ha; visual grading after ca. 3 weeks
Procedure, shortened: as §3

LOLRI [28] = assay: Herbicidal pre-emergence action, section C (Table C7); type: in vivo, Lolium rigidum; details: application rate 320 g/ha; visual grading after ca. 3 weeks
Description: (§4) Seeds of mono- and dicotyledonous weed plants and crop plants were sown, in plastic or organic planting pots, in sandy loam and covered with soil. The compounds according to the invention, formulated in the form of wettable powders (WP) or as emulsifiable concentrates (EC), were applied to the surface of the covering soil as aqueous suspension or emulsion, with the addition of 0.5% of an additive, at an application rate of 600 1 of water/ha (converted). Following treatment, the pots were placed in a greenhouse and kept under optimum growth conditions for the test plants.

DIGSA [29] = assay: Herbicidal pre-emergence action, section C (Table C5); type: in vivo, Digitaria sanguinalis; details: application rate 80 g/ha; visual grading after ca. 3 weeks
KCHSC = assay: Herbicidal pre-emergence action (Table A10); type: in vivo, Kochia scoparia; details: application rate 1280 g/ha; visual grading after ca. 3 weeks
Procedure, shortened: as §3

ABUTH [30] = assay: Herbicidal pre-emergence action, section C (Table C1); type: in vivo, Abutilon theophrasti; details: application rate 80 g/ha; visual grading after ca. 3 weeks
POLCO = assay: Herbicidal pre-emergence action, section C (Table C9); type: in vivo, Polygonum convolvulus; details: visual grading after ca. 3 weeks
DIGSA [31] = assay: Herbicidal post-emergence action (Table B12); type: in vivo, Digitaria sanguinalis; details: application rate 320 g/ha
Procedure, shortened: as §2

ORYZA = assay: Post-emergence effects on crop plants (Table F3); type: in vivo, Oryza sativa; details: application rate 80 g/ha, crop plant ORYZA
Description: as §1

LOLRI [32] = assay: Herbicidal post-emergence action, section E (Table E6); type: in vivo, Lolium rigidum; details: application rate 320 g/ha; assessed visually after ca. 3 weeks
Description: as §1

STEME = assay: Herbicidal pre-emergence action (Table A6); type: in vivo, Stellaria media; details: application rate 320 g/ha; visual grading after ca. 3 weeks
Procedure, shortened: as §3

VIOTR [33] = assay: Herbicidal pre-emergence action, section C (Table C12); type: in vivo, Viola tricolor; details: application rate 80 g/ha; visual grading after ca. 3 weeks
Description: as §4

TRZAS = assay: Post-emergence effects on crop plants (Table F2); type: in vivo, Triticum aestivum; details: application rate 80 g/ha, crop plant TRZAS
Description: as §1

SETVI [34] = assay: Herbicidal pre-emergence action, section C (Table C10); type: in vivo, Setaria viridis; details: application rate 80 g/ha; visual grading after ca. 3 weeks
ECHCG [35] = assay: Herbicidal post-emergence action, section E (Table E5); type: in vivo, Echinochloa crus-galli; details: assessed visually after ca. 3 weeks
Description: as §1

VERPE [36] = assay: Herbicidal post-emergence action (Table B10); type: in vivo, Veronica persica; details: application rate 320 g/ha
Procedure, shortened: as §2

LOLRI [37] = assay: Herbicidal post-emergence action (Table B5); type: in vivo, Lolium rigidum; details: application rate 320 g/ha; rated visually after about 3 weeks
Procedure, shortened: as §2

GLXMA [38] = assay: Post-emergence effects on crop plants (Table F4); type: in vivo, Glycine max; details: application rate 80 g/ha, crop plant GLXMA
Description: as §1

AVEFA = assay: Herbicidal pre-emergence action, section C (Table C4); type: in vivo, Avena fatua; details: application rate 320 g/ha; visual grading after ca. 3 weeks
Description: as §4

BRSNW = assay: Post-emergence effects on crop plants (Table F5); type: in vivo, Brassica napus; details: application rate 320 g/ha, crop plant BRSNW
Description: as §1

AMARE [39] = assay: Herbicidal pre-emergence action, section C (Table C3); type: in vivo, Amaranthus retroflexus; details: application rate 320 g/ha; visual grading after ca. 3 weeks
Description: as §4

Structure (SMILES): O=C1N(Cc2ccccc2F)CCCC12CCCN(Cc1ccccc1F)C2=O (single isomer, unassigned) [I-001]
- post-emergence activity against SETVI (SETVI [1]): 100%
- pre-emergence activity against ECHCG (ECHCG [2]): 100%
- post-emergence activity against VIOTR (VIOTR [3]): 80%
- post-emergence activity against ALOMY (ALOMY [4]): 90%
- pre-emergence activity against DIGSA (DIGSA [5]): 100%
- pre-emergence activity against ECHCG (ECHCG [6]): 100%
- pre-emergence activity against MATIN (MATIN [7]): 90%
- pre-emergence activity against GLXMA (GLXMA [8]): 0%
- pre-emergence activity against VERPE (VERPE [9]): 90%
- post-emergence activity against ALOMY (ALOMY [10]; application rate 320 g/ha): 90%
- post-emergence activity against DIGSA (DIGSA [11]): 80%
- post-emergence activity against ABUTH (ABUTH [12]): 80%
- post-emergence activity against ABUTH (ABUTH [13]): 90%
- pre-emergence activity against SETVI (SETVI [14]): 100%
- pre-emergence activity against POAAN (POAAN [15]): 100%
- post-emergence activity against ECHCG (ECHCG [16]): 100%
- pre-emergence activity against ALOMY (ALOMY [17]): 100%
- post-emergence activity against POAAN (POAAN [18]): 90%
- pre-emergence activity against ABUTH (ABUTH [19]): 90%
- post-emergence activity against MATIN (MATIN [20]): 90%
- post-emergence activity against ZEAMX (ZEAMX; application rate 80 g/ha): 0%
- post-emergence activity against SETVI (SETVI [21]): 90%
- pre-emergence activity against AMARE (AMARE [22]): 90%
- pre-emergence activity against ALOMY (ALOMY [23]): 90%
- pre-emergence activity against MATIN (MATIN [24]): 100%
- post-emergence activity against VERPE (VERPE [25]): 90%
- pre-emergence activity against VERPE (VERPE [26]): 90%
- pre-emergence activity against LOLRI (LOLRI [27]): 100%
- pre-emergence activity against LOLRI (LOLRI [28]): 100%
- pre-emergence activity against DIGSA (DIGSA [29]): 100%
- pre-emergence activity against KCHSC (KCHSC): 90%
- pre-emergence activity against ABUTH (ABUTH [30]): 80%
- pre-emergence activity against POLCO (POLCO; application rate 320 g/ha): 80%
- post-emergence activity against DIGSA (DIGSA [31]): 90%
- post-emergence activity against ORYZA (ORYZA): 0%
- post-emergence activity against LOLRI (LOLRI [32]): 90%
- pre-emergence activity against STEME (STEME): 90%
- pre-emergence activity against VIOTR (VIOTR [33]): 90%
- post-emergence activity against TRZAS (TRZAS): 0%
- pre-emergence activity against SETVI (SETVI [34]): 100%
- post-emergence activity against ECHCG (ECHCG [35]; application rate 80 g/ha): 90%
- post-emergence activity against VERPE (VERPE [36]): 90%
- post-emergence activity against LOLRI (LOLRI [37]): 90%

Structure (SMILES): O=C1N(Cc2c(F)cccc2F)CCCC12CCCN(Cc1c(F)cccc1F)C2=O (single isomer, unassigned; (-)) [I-009, (-)-2,8-bis[(2,6-difluorophenyl)methyl]-2,8-diazaspiro[5.5]undecane-1,7-dione]
- pre-emergence activity against ECHCG (ECHCG [2]): 100%
- post-emergence activity against GLXMA (GLXMA [38]): 20%
- pre-emergence activity against VERPE (VERPE [9]): 90%
- post-emergence activity against ALOMY (ALOMY [10]; application rate 80 g/ha): 80%
- post-emergence activity against DIGSA (DIGSA [11]): 90%
- pre-emergence activity against ALOMY (ALOMY [17]): 100%
- post-emergence activity against ZEAMX (ZEAMX; application rate 320 g/ha): 20%
- pre-emergence activity against MATIN (MATIN [24]): 90%
- post-emergence activity against VERPE (VERPE [25]): 80%
- pre-emergence activity against LOLRI (LOLRI [28]): 100%
- pre-emergence activity against AVEFA (AVEFA): 90%
- pre-emergence activity against DIGSA (DIGSA [29]): 100%
- pre-emergence activity against POLCO (POLCO; application rate 80 g/ha): 80%
- post-emergence activity against ORYZA (ORYZA): 10%
- pre-emergence activity against VIOTR (VIOTR [33]): 80%
- post-emergence activity against TRZAS (TRZAS): 10%
- pre-emergence activity against SETVI (SETVI [34]): 100%
- post-emergence activity against ECHCG (ECHCG [35]; application rate 320 g/ha): 90%
- post-emergence activity against BRSNW (BRSNW): 20%
- pre-emergence activity against AMARE (AMARE [39]): 90%

— patent EP4273147A1, “SUBSTITUTED SPIROLACTAMS, SALTS THEREOF AND THEIR USE AS HERBICIDALLY ACTIVE SUBSTANCES” (Bayer Aktiengesellschaft, priority 2022, dated 2023)
